Publication PMC7536268, “Increased Antimicrobial Activity of Colistin in Combination With Gamithromycin Against Pasteurella multocida in a Neutropenic Murine Lung Infection Model” (Frontiers in Microbiology, 2020)
Where a name gives a salt, the structure may show the parent alone. Read-outs that look alike come from different tables or passages of the source.

Assays:
[1] = test system: Pasteurella multocida strains; assay: MIC by broth microdilution (CLSI); format: cell-based; details: drug alone, against three strains (D18, T5, and WJ11)
Protocol: The susceptibility of the selected P. multocida isolates and the quality control isolate (ATCC 25922) to colistin, gamithromycin, cefquinome, enrofloxacin, tilmicosin, tylosin tartrate, and florfenicol alone was determined using the microdilution method in broth (conducted in triplicate) according to the guiding principles of the CLSI. Based on the action mechanism of each drug, the antimicrobial activity of colistin or cefquinome (drug A) in combination with gamithromycin, enrofloxacin, tilmicosin, tylosin tartrate, or florfenicol (drug B) was determined with the checkerboard method, according to the minimal inhibitory concentration (MIC) of each drug. Briefly, 50 μL of MH II broth was added to each well, and 50 μL of the indicated concentration of colistin or cefquinome was added into the first well of each line. This was followed by multiproportion dilution. Next, 50-μL samples of different concentrations of gamithromycin or the other drugs mentioned above were added to the dilution medium, and a 100 μL inoculum with a cell density of ∼1 × 10^6 colony-forming units (CFU)/mL was added to each well. The plates were then incubated at 37°C for 24 h. According to the EUCAST definitive document E.Def 1.2 ([Mccullough, 2010]), the fractional inhibitory concentration (FIC) index for combined administrations was defined as the sum of the FIC of drug A and the FIC of drug B, where FIC is the MIC of the drug combined with other drugs, divided by the MIC of the drug alone.

P. multocida = test system: P. multocida; set-up: method as in Benoit et al., 2011; details: P. multocida with erm(E); ref Benoit et al., 2011; cited from earlier work
Text: Bovine respiratory disease (BRD) associated with Mannheimia haemolytica, P. multocida, and Histophilus somni is one of the most economically important diseases that occur in feedlots, and the global losses are estimated at over $3 billion per year ([Watts and Sweeney, 2010]).

[2] = Pasteurella multocida, read-out: MIC

Compound	MIC [1]	MIC [1, 2] [µg/mL]	MIC (P. multocida) [µg/mL]
CO/N=C(\C(=O)N[C@@H]1C(=O)N2C(C(=O)[O-])=C(C[n+]3cccc4c3CCCC4)CS[C@H]12)c1csc(N)n1 [cefquinome, Cefquinome]	more than 64 mg/L		
CCN1CCN(c2cc3c(cc2F)c(=O)c(C(=O)O)cn3C2CC2)CC1 [enrofloxacin, Enrofloxacin]		> 64	
CS(=O)(=O)c1ccc([C@@H](O)[C@@H](CF)NC(=O)C(Cl)Cl)cc1 [florfenicol]		2 to 4	
CC[C@H]1OC(=O)C[C@@H](O)[C@H](C)[C@@H](O[C@@H]2O[C@H](C)[C@@H](O)[C@H](N(C)C)[C@H]2O)[C@@H](CCN2C[C@H](C)C[C@H](C)C2)C[C@@H](C)C(=O)/C=C/C(C)=C/[C@@H]1CO[C@@H]1O[C@H](C)[C@@H](O)[C@@H](OC)[C@H]1OC [tilmicosin]		2 to 4	≥ 512
CCCNC[C@]1(O)[C@H](C)O[C@@H](O[C@H]2[C@H](C)[C@@H](O[C@@H]3O[C@H](C)C[C@H](N(C)C)[C@H]3O)[C@](C)(O)C[C@@H](C)CN[C@H](C)[C@@H](O)[C@](C)(O)[C@@H](CC)OC(=O)[C@@H]2C)C[C@@]1(C)OC [tulathromycin]			≥ 512
CC[C@H]1OC(=O)C[C@@H](O)[C@H](C)[C@@H](O[C@@H]2O[C@H](C)[C@@H](O[C@H]3C[C@@](C)(O)[C@@H](O)[C@H](C)O3)[C@H](N(C)C)[C@H]2O)[C@@H](CC=O)C[C@@H](C)C(=O)/C=C/C(C)=C/[C@@H]1CO[C@@H]1O[C@H](C)[C@@H](O)[C@@H](OC)[C@H]1OC [tylosin, tylosin tartrate]		> 64	≥ 512
